Assay results from BindingDB's records for doi:10.1021/jm960720+ (Ansto, 1997).

Assays:
[1] = biological target: Sigma non-opioid intracellular receptor 1 (Cavia porcellus) (UniProt Q60492); assay: In vitro for binding affinity at sigma-1 receptor by measuring its ability to displace [3H](+)-pentazocine from guinea pig membranes
[2] = biological target: Sigma non-opioid intracellular receptor 1 (Cavia porcellus) (UniProt Q60492); assay: Receptor binding affinity against Sigma-1 receptor from guinea pig membranes

Chain of Sigma non-opioid intracellular receptor 1 (Cavia porcellus) (Q60492 whole entry, looked up): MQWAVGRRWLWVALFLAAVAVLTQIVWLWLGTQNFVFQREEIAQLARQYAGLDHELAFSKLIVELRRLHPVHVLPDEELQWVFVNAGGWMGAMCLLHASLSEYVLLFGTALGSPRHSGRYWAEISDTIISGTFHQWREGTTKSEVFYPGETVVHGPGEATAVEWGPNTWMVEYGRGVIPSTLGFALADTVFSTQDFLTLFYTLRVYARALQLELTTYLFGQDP

N#Cc1ccc(OCC2CCN(CCCF)CC2)cc1
Ki [1]: 4.3 nM

FCCN1CCC(COc2ccc(I)cc2)CC1 [1-(2-Fluoro-ethyl)-4-(4-iodo-phenoxymethyl)-piperidine]
Ki [1]: 0.84 nM

Fc1cccc(CN2CCC(COc3c(F)c(F)c(F)c(F)c3F)CC2)c1 [1-(3-Fluoro-benzyl)-4-pentafluorophenyloxymethyl-piperidine]
Ki [1]: 3.3 nM

FCCCN1CCC(COc2c(F)c(F)c(F)c(F)c2F)CC1 [1-(3-Fluoro-propyl)-4-pentafluorophenyloxymethyl-piperidine]
Ki [1]: 1.7 nM

O=[N+]([O-])c1ccc(OCC2CCN(Cc3ccc(F)cc3)CC2)cc1 [1-(4-Fluoro-benzyl)-4-(4-nitro-phenoxymethyl)-piperidine]
Ki [2]: 1.2 nM

Fc1ccc(CN2CCC(COc3c(F)c(F)c(F)c(F)c3F)CC2)cc1 [1-(4-Fluoro-benzyl)-4-pentafluorophenyloxymethyl-piperidine]
Ki [1]: 3.6 nM

Ic1ccc(OCC2CCN(CC3CC3)CC2)cc1 [1-Cyclopropylmethyl-4-(4-iodo-phenoxymethyl)-piperidine]
Ki [1]: 0.5 nM

Fc1c(F)c(F)c(CN2CCC(COc3c(F)c(F)c(F)c(F)c3F)CC2)c(F)c1F [1-Pentafluorophenylmethyl-4-pentafluorophenyloxymethyl-piperidine]
Ki [1]: > 1000 nM

OCCN1CCC(COc2ccc(I)cc2)CC1 [2-[4-(4-Iodo-phenoxymethyl)-piperidin-1-yl]-ethanol]
Ki [1]: 2.3 nM

N#Cc1ccccc1CN1CCC(COc2ccc(I)cc2)CC1 [2-[4-(4-Iodo-phenoxymethyl)-piperidin-1-ylmethyl]-benzonitrile]
Ki [1]: 10.5 nM

N#Cc1cccc(CN2CCC(COc3ccc(I)cc3)CC2)c1 [3-[4-(4-Iodo-phenoxymethyl)-piperidin-1-ylmethyl]-benzonitrile]
Ki [1]: 2.9 nM

Brc1cccc(OCC2CCN(CC3CC3)CC2)c1 [4-(3-Bromo-phenoxymethyl)-1-cyclopropylmethyl-piperidine]
Ki [1]: 0.88 nM

FCCCN1CCC(COc2ccc(Br)cc2)CC1 [4-(4-Bromo-phenoxymethyl)-1-(3-fluoro-propyl)-piperidine]
Ki [1]: 0.38 nM

Brc1ccc(OCC2CCN(CC3CC3)CC2)cc1 [4-(4-Bromo-phenoxymethyl)-1-cyclopropylmethyl-piperidine]
Ki [1]: 0.6 nM

N#Cc1ccc(OCC2CCN(Cc3ccccc3Br)CC2)cc1 [4-[1-(2-Bromo-benzyl)-piperidin-4-ylmethoxy]-benzonitrile]
Ki [1]: 2.02 nM

N#Cc1ccc(OCC2CCN(CCF)CC2)cc1 [4-[1-(2-Fluoro-ethyl)-piperidin-4-ylmethoxy]-benzonitrile]
Ki [1]: 24.3 nM

N#Cc1ccc(OCC2CCN(Cc3ccccc3I)CC2)cc1 [4-[1-(2-Iodo-benzyl)-piperidin-4-ylmethoxy]-benzonitrile]
Ki [1]: 9.24 nM

N#Cc1ccc(OCC2CCN(Cc3ccc(F)cc3)CC2)cc1 [4-[1-(4-Fluoro-benzyl)-piperidin-4-ylmethoxy]-benzonitrile]
Ki [1]: 0.76 nM
